Reference: ChEMBL document CHEMBL6074663, “Design, synthesis and evaluation of 3-(2-(substituted benzyloxy)benzylidene) pyrrolidine-2,5-dione derivatives for novel ATX inhibitor” (Bioorg Med Chem Lett, 2024)

Tests used:
LX-2 = assay: Inhibition of cell migration in TGF-beta induced human LX2 cells by measuring cell uncovered area at 0.3 to 3 uM incubated for 24 hrs by wound healing assay; format: functional; settings: dose 0.3-3 µM
Autotaxin [1] = target: T1, Autotaxin (Homo sapiens, UniProt Q13822); assay: Inhibition of ATX (unknown origin) using FS-3 as substrate preincubated with compound for 10 mins followed by substrate addition measured for 30 mins by fluorometric kinetic assay
[2] = Inhibition of collagen formation in oleic and palmitic acid induced human Huh-7 cells cocultured with human LX2 cells at 1 to 10 uM incubated for […] by Sirius Red staining based analysis; format: functional; settings: dose 1-10 µM
Huh-7 = assay: Anti-steatosis activity against oleic acid induced human Huh-7 cells assessed as reduction of lipid accumulation at 1 to 10 uM incubated for 24 hrs by […] based fluorescence microscopic analysis; format: functional; set-up: scale not given: the % may be the effect or the level left; settings: dose 1-10 µM
Autotaxin [3] = target: T1, Autotaxin; assay: Inhibition of ATX (unknown origin) using FS-3 as substrate by measuring fold change preincubated with compound for 10 mins followed by substrate addition measured for 30 mins by fluorometric kinetic assay compared to 3-(2-(benzyloxy)benzylidene)-1-(3-chlorophenyl)pyrrolidine-2,5-dione; settings: time 40.0 min

| IC50 (Autotaxin [1]) | SMILES | other results |
| --- | --- | --- |
| 0.13 µM | COC(=O)c1ccc(COc2ccccc2/C=C2\CC(=O)N(c3cccc(Cl)c3)C2=O)cc1 | inhibition (INH) (LX-2): 23%; inhibition (INH) [2]: 35%; Activity (Huh-7): 42% |
| 0.28 µM | N#Cc1ccc(COc2ccccc2/C=C2/CC(=O)N(c3cccc(Cl)c3)C2=O)cc1 | fold change (FC) (Autotaxin [3]): 3.5 |
| 2.04 µM | O=C(Oc1ccccc1)c1ccc(COc2ccccc2/C=C2/CC(=O)N(c3cccc(Cl)c3)C2=O)cc1 | – |
| 0.24 µM | NC(=O)c1ccc(COc2ccccc2/C=C2/CC(=O)N(c3cccc(Cl)c3)C2=O)cc1 | – |
| 0.98 µM | O=C1C/C(=C/c2ccccc2OCc2ccccc2)C(=O)N1c1cccc(Cl)c1 | – |
| > 10 µM | O=C(Oc1cccc2ccccc12)c1ccc(COc2ccccc2/C=C2/CC(=O)N(c3cccc(Cl)c3)C2=O)cc1 | – |
| 9.39 µM | O=C(O)c1ccc(COc2ccccc2/C=C2/CC(=O)N(c3cccc(Cl)c3)C2=O)cc1 | – |
| 0.32 µM | CCCOC(=O)c1ccc(COc2ccccc2/C=C2/CC(=O)N(c3cccc(Cl)c3)C2=O)cc1 | – |
| 0.27 µM | CC(C)OC(=O)c1ccc(COc2ccccc2/C=C2/CC(=O)N(c3cccc(Cl)c3)C2=O)cc1 | – |
| > 10 µM | CN(C)C(=O)c1ccc(COc2ccccc2/C=C2/CC(=O)N(c3cccc(Cl)c3)C2=O)cc1 | – |
